Data set [1] in a line: Terminal half life in rat. To be noted: in vivo.
The test system of the next data set is Homo sapiens. Kind of data set: Protection against cisplatin-induced ototoxicity in human assessed as reduction in hearing loss administered iv 35 mins prior to cisplatin treatment. Type of data set: functional. On the set-up: scale not given: the % may be the effect or the level left.

The compound `[14CH3]SCC[C@@H](N)C(=O)O` gave a half-life in data set [1] of 34.2 min.

For `NCCCNCCSP(=O)(O)O` [AMIFOSTINE], in the data set with Homo sapiens, the Activity is recorded as 43%.

The half-life is the time in which the quantity being followed falls by half.

For the origin of these results see ChEMBL document CHEMBL4219065, “Progress in the Development of Preventative Drugs for Cisplatin-Induced Hearing Loss” (J Med Chem, 2018).
